Structures can show the parent of a compound that is named as a salt.
The compounds below were run against purified human Factor XIa (Homo sapiens (Human), UniProt P03951) (assay: Factor XIa Assay). Details: purified human Factor XIa 40 pM, substrate Z-Gly-Pro-Arg-AFC 100 μM, pH 7.4; read-out: hFactor XIa Ki.
Assay type: biochemical
Description: The effectiveness of a compound of the present invention as an inhibitor of Coagulation Factor XIa can be determined using a relevant purified serine protease, and an appropriate synthetic substrate. The rate of hydrolysis of the chromogenic or fluorogenic substrate by the relevant serine protease was measured both in the absence and presence of compounds of the present invention. Assays were conducted at room temperature or at 37° C. […] A decrease in the rate of fluorescence change in the presence of inhibitor is indicative of enzyme inhibition. Such methods are known to one skilled in the art. The results of this assay are expressed as the inhibitory constant, Ki.
Factor XIa determinations were made in 50 mM HEPES buffer at pH 7.4 containing 150 mM NaCl, 5 mM CaCl2, and 0.1% PEG 8000 (polyethylene glycol; JT Baker or Fisher Scientific). Determinations were made using purified human Factor XIa at a final concentration of 40 pM (Sekisui Diagnostics) and the synthetic substrate, Z-Gly-Pro-Arg-AFC, TFA salt (Sigma #C0980) at a concentration of 100 μM.
Activity assays were performed by diluting a stock solution of substrate at least tenfold to a final concentration ≦0.1 Km into a solution containing enzyme or enzyme equilibrated with inhibitor. Times required to achieve equilibration between enzyme and inhibitor were determined in control experiments. Initial velocities of product formation in the absence (Vo) or presence of inhibitor (Vi) were measured. Assuming competitive inhibition, and that unity is negligible compared Km/[S], [I]/e, and [I]/e (where [S], [I], and e respectively represent the total concentrations, of substrate, inhibitor and enzyme), the equilibrium constant (Ki) for dissociation of the inhibitor from the enzyme can be obtained from the dependence of Vo/Vi on [I] shown in the following equation. Vo/Vi=1+[I]/Ki

purified human Factor XIa, sequence (P03951 388-625): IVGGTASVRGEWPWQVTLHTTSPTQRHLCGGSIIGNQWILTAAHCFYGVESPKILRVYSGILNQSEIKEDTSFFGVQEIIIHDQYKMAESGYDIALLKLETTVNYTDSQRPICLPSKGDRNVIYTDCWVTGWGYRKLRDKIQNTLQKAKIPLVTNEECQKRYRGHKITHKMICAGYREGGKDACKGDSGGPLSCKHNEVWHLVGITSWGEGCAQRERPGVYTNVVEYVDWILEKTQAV
purified human Factor XIa, sequence (P03951 19-387 partner): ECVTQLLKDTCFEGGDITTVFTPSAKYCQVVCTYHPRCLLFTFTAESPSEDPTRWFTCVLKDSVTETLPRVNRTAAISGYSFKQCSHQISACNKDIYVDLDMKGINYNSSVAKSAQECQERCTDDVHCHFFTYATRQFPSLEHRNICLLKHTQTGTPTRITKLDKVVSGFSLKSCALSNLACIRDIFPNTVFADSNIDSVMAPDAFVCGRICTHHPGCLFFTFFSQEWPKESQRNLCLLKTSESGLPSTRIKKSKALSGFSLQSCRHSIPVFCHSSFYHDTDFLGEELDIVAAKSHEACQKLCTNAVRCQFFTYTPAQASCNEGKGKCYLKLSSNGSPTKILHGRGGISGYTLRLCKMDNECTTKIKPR

SMILES | Ki [nM]
COC(=O)Nc1ccc2c(c1)NC(=O)CCCC[C@H](N1CCc3cc(CN)ccc3C1=O)c1nc-2c[nH]1 [Example 1, Methyl [(7S)-7-[6-(aminomethyl)-1-oxo-3,4-dihydroisoquinolin-2(1H)-yl]-2-oxo-1,2,3,4,5,6,7,9-octahydro-11,8-(azeno)-1,9-benzodiazacyclotridecin-14-yl]carbamate] | 2.4
COC(=O)Nc1ccc2c(c1)NC(=O)CCCC[C@H](N1CCCc3cc(CN)ccc3C1=O)c1nc-2c[nH]1 [Example 2, Methyl [(7S)-7-[7-(aminomethyl)-1-oxo-1,3,4,5-tetrahydro-2H-2-benzazepin-2-yl]-2-oxo-1,2,3,4,5,6,7,9-octahydro-11,8-(azeno)-1,9-benzodiazacyclotridecin-14-yl]carbamate trifluoroacetate] | 3.9
NCc1ccc2c(c1)CCN([C@H]1CCCCC(=O)Nc3ccc(F)cc3-c3ccnc1c3)C2=O [Example 4, 9-(6-(aminomethyl)-1-oxo-3,4-dihydroisoquinolin-2(1H)-yl)-2^5-fluoro-3-aza-1(4,2)-pyridina-2(1,2)-benzenacyclononaphan-4-one] | 170
COC(=O)Nc1ccc2c(c1)NC(=O)CCCC[C@H](N1Cc3cc(CN)ccc3C1=O)c1nc-2c[nH]1 [Example 3, Methyl [(7S)-7-[5-(aminomethyl)-1-oxo-1,3-dihydro-2H-isoindol-2-yl]-2-oxo-1,2,3,4,5,6,7,9-octahydro-11,8-(azeno)-1,9-benzodiazacyclotridecin-14-yl]carbamate] | 70

Reference: patent US9663527B2, “Factor XIa inhibitors” (Merck Sharp & Dohme Corp., priority 2014, dated 2017)
